Assay results from US8318641B2, “Systems and methods for the detection of biomarkers” (priority 2010, dated 2012).

T1: Lysozyme (Homo sapiens, UniProt P61626)
T1 sequence (P61626 19-148): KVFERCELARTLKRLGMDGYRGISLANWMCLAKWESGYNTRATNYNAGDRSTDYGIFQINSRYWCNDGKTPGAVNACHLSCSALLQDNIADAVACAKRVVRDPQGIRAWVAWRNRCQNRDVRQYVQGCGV

T2: α-amylase (Homo sapiens, UniProt P0DUB6)
T2 sequence (P0DUB6 16-511): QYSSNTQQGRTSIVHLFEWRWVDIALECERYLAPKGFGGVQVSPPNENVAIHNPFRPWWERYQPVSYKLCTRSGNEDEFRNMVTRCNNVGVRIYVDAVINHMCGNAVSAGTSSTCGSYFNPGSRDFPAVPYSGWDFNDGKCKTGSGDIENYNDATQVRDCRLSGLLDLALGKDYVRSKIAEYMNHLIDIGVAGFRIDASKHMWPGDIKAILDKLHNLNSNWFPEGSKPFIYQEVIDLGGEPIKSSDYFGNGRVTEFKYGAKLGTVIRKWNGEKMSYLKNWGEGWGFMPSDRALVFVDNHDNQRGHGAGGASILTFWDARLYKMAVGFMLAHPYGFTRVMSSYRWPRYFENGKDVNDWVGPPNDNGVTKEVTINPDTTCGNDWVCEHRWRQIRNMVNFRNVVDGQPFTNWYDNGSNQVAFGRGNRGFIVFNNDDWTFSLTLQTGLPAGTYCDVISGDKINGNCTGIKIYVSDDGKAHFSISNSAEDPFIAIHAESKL

B1: Soybeans: primary soybean protease inhibitor, 20.7-22.3 kDa (protein, UniProt P01070 25-205, looked up)
Trypsin inhibitor A: DFVLDNEGNPLENGGTYYILSDITAFGGIRAAPTGNERCPLTVVQSRNELDKGIGTIISSPYRIRFIAEGHPLSLKFDSFAVIMLCVGIPTEWSVVEDLPEGPAVKIGENKDAMDGWFRLERVSDDEFNNYKLVFCPQQAEDDKCGDIGISIDHDDGTRRLVVSKNKPLVVQFQKLDKESL

Legend:
[1] = test system: peroxidase; assay: Peroxidase assay in saliva (Amplex Red); format: biochemical; settings: test compound prepared at 500 ppm, 30 minutes, FIGS. 26-29
Protocol: To determine the effect of various GRAS compounds as inhibitors of peroxidase activity, a standard assay using Amplex® Red (Life Technologies), which releases a fluorescent oxidation product.
The test compounds, such as GRAS materials or cocktails of same, were prepared at a concentration of 500 ppm in distilled water. For the assay, 50 μl samples of test compounds were mixed with 20-30 μl of saliva (either “pooled” or “unpooled”) prior to the addition of Amplex® Red. […] Reactions were allowed to run for 30 minutes during these assays.

[2] = target: T1, Lysozyme; assay: Lysozyme inhibition saliva screening (fluorescein-labeled Micrococcus lysodeikticus); format: biochemical; settings: 100% saliva samples (data not shown)
Text: Further details of these five compounds may also be seen in Table 5.

[3] = target: T2, α-amylase; assay: α-Amylase inhibition saliva screening (2-chloro-p-nitrophenol-maltotriose substrate, absorbance 405 nm); format: biochemical
Text: Further details of these five compounds may also be seen in Table 4.

[4] = test system: protease; settings: cited from earlier work

Molecule | peroxidase inhibition [1] | Ave (absorbance at 405 nm) ([3]; Time 0 min) | further results
Cn1c(=O)c2c(ncn2C)n(C)c1=O [CDI #33, Caffeine] | significant peroxidase inhibition capabilities |  | 
COc1ccc(O)c(C(C)(C)C)c1 [CDI-039, 3-tert--butyl-hydroxyanisole] | significant peroxidase inhibition capabilities |  | 
CC(=O)O [CDI-047, Acetic acid] |  |  | Lysozyme inhibition [2]: shown to inhibit Lysozyme
Aluminum potassium sulfate dodecahydrate [CDI-42] | significant peroxidase inhibition capabilities | 0.92 | 
Aluminum sulfate hydrate [CDI-34] |  | 0.40 | Ave (absorbance at 405 nm) ([3]; Time 5 min): 0.50; Ave (absorbance at 405 nm) ([3]; Time 15 min): 0.56
B1 |  |  | Inhibitory power [4]: 1.2 times times weight
